Assay results: PubChem BioAssay AID1996
Values after ≈ are worked out from the molar mass of the structure shown.

Conditions: buffer; pH 7.4; 200.0 µM

| Compound | solubility kinetic |
| --- | --- |
| NC(=O)C1CCN(C(=O)c2cc3c(s2)CCCC3)CC1 | 0.0437 mg/mL (≈ 149 µM) |
| CC(C)=CC1C(C(=O)NCCOc2ccccc2)C1(C)C (centres undefined) | 0.0177 mg/mL (≈ 61.6 µM) |
| COc1cc2c(cc1OC)C(CCc1ccccc1)=NCC2 | 0.0426 mg/mL (≈ 144 µM) |
| Cc1cccc(C(=O)Nc2scc(-c3ccc(Br)cc3)c2C(=O)O)c1 | 0.0036 mg/mL (≈ 8.65 µM) |
| Cc1ccc(C(=O)NC(=S)N(C)Cc2ccccc2)cc1 | 0.002 mg/mL (≈ 6.7 µM) |
| CCOC(=O)C1CCCCN1Cc1cccc(Oc2ccccc2)c1 (centres undefined) | < 0.0007 mg/mL |
| O=C(Nc1cccc([N+](=O)[O-])c1)Nc1cccs1 | 0.0323 mg/mL (≈ 123 µM) |
| CCN(CC(=O)NCc1ccc(Cl)cc1)C(=O)/C=C/c1ccccc1 | 0.0028 mg/mL (≈ 7.85 µM) |
| O=C(NCC1CCCO1)c1cc(-c2ccccc2)nc2ccccc12 (centres undefined) | > 0.0499 mg/mL |
| COc1cccc(Oc2nc(-c3ccncc3)nc3ccccc23)c1 | < 0.0002 mg/mL |
| COc1ccc(C(=O)NCCNc2ccc([N+](=O)[O-])cn2)cc1 | 0.0164 mg/mL (≈ 51.8 µM) |
| Cc1ccc(NC(=O)C(=O)NCCCN2CC(C(=O)O)CC2=O)cc1 (centres undefined) | > 0.0521 mg/mL |
| Cn1c(=O)cc(Nc2ccccc2)[nH]c1=O | 0.0103 mg/mL (≈ 47.4 µM) |
| COc1ccc(C2OCC3(CO2)SC(=O)NC3=O)cc1OC (centres undefined) | 0.0448 mg/mL (≈ 138 µM) |
| O=C(Nc1ccc(O)cc1)/C(=C/c1ccco1)NC(=O)c1ccccc1 | > 0.0523 mg/mL |
| Cc1cccc(C(=O)OCC(=O)NCc2ccc3c(c2)OCO3)c1C | 0.0145 mg/mL (≈ 42.5 µM) |
| Cc1cc(=O)[nH]c(-c2ccc(C(F)(F)F)cc2)n1 | > 0.0381 mg/mL |
| COc1ccc(CNC(=O)c2cc(=O)c3ccccc3o2)cc1 | 0.012 mg/mL (≈ 38.8 µM) |
| CN(C)c1cc(-c2ccc([N+](=O)[O-])cc2)oc(=O)c1Cl | 0.0009 mg/mL (≈ 3.05 µM) |
| O=C(N1CCCC1)N1CCN(S(=O)(=O)c2ccccc2)CC1 | 0.0344 mg/mL (≈ 106 µM) |

| Compound | solubility kinetic |
| --- | --- |
| O=C(Cc1ccccc1)Nc1ccc(NC(=O)c2ccccc2)nc1 | 0.0052 mg/mL (≈ 15.7 µM) |
| O=C1CC(=O)N(c2ccc(Cl)cc2)C(=O)N1 | > 0.0358 mg/mL |
| Cc1ccc(S(=O)(=O)NC2CC2)s1 | > 0.0326 mg/mL |
| COc1c(Cl)cccc1-c1cn2ccc(C)cc2n1 | 0.0014 mg/mL (≈ 5.13 µM) |
| S=C(NCc1ccco1)N/N=C/c1ccncc1 | > 0.039 mg/mL |
| Clc1ccccc1CN1CCN(c2cccc3[nH]ccc23)CC1 | 0.0235 mg/mL (≈ 72.1 µM) |
| Cn1c(SCc2ccccc2C#N)nnc1-c1ccncc1 | > 0.0461 mg/mL |
| COC(=O)[C@H](CCSC)NC(=O)Nc1cc(OC)cc(OC)c1 | > 0.0514 mg/mL |
| CC(C)(C)NC(=O)NC(=O)CN1CC=C(c2ccccc2)CC1 | 0.0389 mg/mL (≈ 123 µM) |
| COCCCN(CC(=O)Nc1ccc(F)cc1)S(=O)(=O)c1cccs1 | > 0.058 mg/mL |
| COc1ccccc1NC(=O)C[n+]1ccccc1C.[Cl-] | 0.041 mg/mL |
| O=Cc1ccc(C(=O)OCC(=O)Nc2ccc(F)cc2F)cc1 | 0.0037 mg/mL (≈ 11.6 µM) |
| CN(CCO)C(=O)c1c(NC(=O)c2ccccc2)sc2c1CCCC2 | 0.0341 mg/mL (≈ 95.1 µM) |
| CCOc1ccc(N(C)S(=O)(=O)c2ccc(C)c(C(=O)N3CCN(Cc4ccc5c(c4)OCO5)CC3)c2)cc1 | 0.0152 mg/mL (≈ 27.6 µM) |
| Cc1c(Cl)cccc1NC(=O)CC(Cc1ccccc1)C(=O)O (centres undefined) | > 0.0498 mg/mL |
| Cc1onc(-c2ccccc2)c1C(=O)Nc1cccc(S(=O)(=O)N2CCCCC2)c1 | 0.0025 mg/mL (≈ 5.88 µM) |
| N#Cc1c(-c2ccccc2)ccnc1N1CCOCC1 | 0.0176 mg/mL (≈ 66.3 µM) |
| COc1ccc(NC(=O)CNC(=O)C2CCCCC2)cc1 | 0.0397 mg/mL (≈ 137 µM) |
| CC(=O)Nc1ccc(S(=O)(=O)NCCCc2ccccc2)cc1 | > 0.0499 mg/mL |
| COc1ccccc1N(CC(=O)N1CCCC1)S(=O)(=O)c1cc([N+](=O)[O-])ccc1Cl | 0.0068 mg/mL (≈ 15 µM) |

| Compound | solubility kinetic |
| --- | --- |
| CC1(C)CC(NC(=O)C2CCCCC2)CC(C)(C)N1 | 0.0352 mg/mL (≈ 132 µM) |
| O=C(CN1CCCc2ccccc21)N1CCc2ccccc21 | 0.0048 mg/mL (≈ 16.4 µM) |
| O=C1NCC(COc2cccc3ccccc23)O1 (centres undefined) | > 0.0365 mg/mL |
| NC(=O)c1ccc(NC(=S)NCc2ccco2)cc1 | > 0.0413 mg/mL |
| Cc1ccc(OCCCCN2CCc3ccccc3C2)c(C)c1.Cl | 0.0048 mg/mL |
| O=C(Nc1ccc2c(c1)OCO2)C1CCCCC1 | > 0.0371 mg/mL |
| O=C(NCCOc1ccccc1F)Nc1ccc(Br)cc1 | 0.0021 mg/mL (≈ 5.95 µM) |
| COc1ccc(NS(=O)(=O)c2cn(C)nc2C)cc1 | > 0.0422 mg/mL |
| Cc1ccc2c(c1)/C(=C/c1ccccc1F)C(=O)N2 | 0.0013 mg/mL (≈ 5.13 µM) |
| COc1ccc(N2CCN(c3cc(C)c4cccc(C)c4n3)CC2)cc1 | < 0.0002 mg/mL |
| Cc1ccc(C(=O)NCC(=O)O)o1 | 0.0251 mg/mL (≈ 137 µM) |
| Cl.NCCc1nnc(SCc2ccccc2Cl)o1 | > 0.0459 mg/mL |
| COc1cc(SC)ccc1C(=O)Nc1cccc(C)n1 | 0.0034 mg/mL (≈ 11.8 µM) |
| COc1ccc([N+](=O)[O-])c(S(=O)(=O)c2ccccc2)n1 | 0.0056 mg/mL (≈ 19 µM) |
| O=C(Cc1c(Cl)cccc1Cl)NC1=NCCS1 | 0.0192 mg/mL (≈ 66.4 µM) |
| Cc1ccc(NC(=S)Nc2cccc3ccccc23)cc1 | 0.0015 mg/mL (≈ 5.13 µM) |
| Cc1ccc(N(CC2CO2)S(=O)(=O)c2ccccc2[N+](=O)[O-])cc1 (centres undefined) | 0.0367 mg/mL (≈ 105 µM) |
| COC(=O)c1ccc(NC(=O)C[n+]2ccccc2)cc1.[Cl-] | > 0.046 mg/mL |
| O=C(Nc1ccc(COc2ccccc2)cc1)Nc1cccc(C(=O)O)c1 | 0.0121 mg/mL (≈ 33.4 µM) |
